According to ChEMBL document CHEMBL1201862, “PubChem BioAssay data set” (2004):
Active and inactive are the calls of the source.

How the values were obtained:
[1] = target: T1, Heat shock factor protein 1 (Mus musculus, UniProt P38532); test: enhancement of HSF1-driven luciferase signal – cell-based, NIH3T3, luminescence, dose retest, confirmation (AID 435004); format: functional;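 note: stress induced by proteasome inhibitor MG132 added 30 min after compound; luciferase reporter driven by HSF1 response element in NIH3T3 cells; actives raise luminescence as potentiators of the MG132 stress response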
T1 sequence (P38532 whole entry): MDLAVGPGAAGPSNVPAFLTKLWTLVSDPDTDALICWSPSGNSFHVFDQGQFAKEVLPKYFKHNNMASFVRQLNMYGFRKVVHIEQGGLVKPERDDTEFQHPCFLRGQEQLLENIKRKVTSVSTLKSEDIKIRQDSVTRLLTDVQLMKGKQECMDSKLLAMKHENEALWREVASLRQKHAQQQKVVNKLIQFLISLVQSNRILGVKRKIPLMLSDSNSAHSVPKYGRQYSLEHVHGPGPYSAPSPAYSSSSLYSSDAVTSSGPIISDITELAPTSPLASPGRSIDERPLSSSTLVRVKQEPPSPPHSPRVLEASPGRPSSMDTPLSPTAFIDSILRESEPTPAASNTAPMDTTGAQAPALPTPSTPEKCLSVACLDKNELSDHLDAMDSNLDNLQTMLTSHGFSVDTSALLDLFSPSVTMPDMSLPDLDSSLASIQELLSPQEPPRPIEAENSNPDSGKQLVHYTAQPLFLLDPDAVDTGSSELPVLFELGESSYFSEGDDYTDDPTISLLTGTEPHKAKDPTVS

cells [2] = format: functional, cell-based
cells [3] = format: functional, cell-based; remark: listed apart in the source
[4] = target: T2, Ubiquitin-conjugating enzyme E2 N (Homo sapiens, UniProt P61088); format: functional;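 note: Dose-response confirmation in a TR-FRET assay detecting UBC13-driven polyubiquitin chain formation, inhibition measured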
T2 sequence (P61088 whole entry): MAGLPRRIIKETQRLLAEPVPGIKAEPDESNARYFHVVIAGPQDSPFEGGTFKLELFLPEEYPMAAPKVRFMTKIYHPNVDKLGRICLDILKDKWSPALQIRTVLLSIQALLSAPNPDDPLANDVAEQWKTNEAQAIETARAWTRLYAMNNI

[5] = intracellular Trypanosoma cruzi inhibitors in host cells – cell-based, plate reader, cherry-pick samples, set 3, dose response (AID 651818); format: functional;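 note: compounds incubated with infected cells for about four days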
[6] = Luminescence Cell-Based Dose Retest to Confirm Inhibitors of Cancer Stem Cells. [Related pubchem assays (depositor defined):AID2717, AID2721]; format: functional; settings: Homo sapiens
[7] = target: T3, Replicative DNA helicase DnaB (Mycobacterium tuberculosis, UniProt P9WMR3); test: DnaB intein splicing inhibitors, dose response, biochemical, cell-free fluorescence (AID 449749); format: functional
T3 sequence (P9WMR3 whole entry): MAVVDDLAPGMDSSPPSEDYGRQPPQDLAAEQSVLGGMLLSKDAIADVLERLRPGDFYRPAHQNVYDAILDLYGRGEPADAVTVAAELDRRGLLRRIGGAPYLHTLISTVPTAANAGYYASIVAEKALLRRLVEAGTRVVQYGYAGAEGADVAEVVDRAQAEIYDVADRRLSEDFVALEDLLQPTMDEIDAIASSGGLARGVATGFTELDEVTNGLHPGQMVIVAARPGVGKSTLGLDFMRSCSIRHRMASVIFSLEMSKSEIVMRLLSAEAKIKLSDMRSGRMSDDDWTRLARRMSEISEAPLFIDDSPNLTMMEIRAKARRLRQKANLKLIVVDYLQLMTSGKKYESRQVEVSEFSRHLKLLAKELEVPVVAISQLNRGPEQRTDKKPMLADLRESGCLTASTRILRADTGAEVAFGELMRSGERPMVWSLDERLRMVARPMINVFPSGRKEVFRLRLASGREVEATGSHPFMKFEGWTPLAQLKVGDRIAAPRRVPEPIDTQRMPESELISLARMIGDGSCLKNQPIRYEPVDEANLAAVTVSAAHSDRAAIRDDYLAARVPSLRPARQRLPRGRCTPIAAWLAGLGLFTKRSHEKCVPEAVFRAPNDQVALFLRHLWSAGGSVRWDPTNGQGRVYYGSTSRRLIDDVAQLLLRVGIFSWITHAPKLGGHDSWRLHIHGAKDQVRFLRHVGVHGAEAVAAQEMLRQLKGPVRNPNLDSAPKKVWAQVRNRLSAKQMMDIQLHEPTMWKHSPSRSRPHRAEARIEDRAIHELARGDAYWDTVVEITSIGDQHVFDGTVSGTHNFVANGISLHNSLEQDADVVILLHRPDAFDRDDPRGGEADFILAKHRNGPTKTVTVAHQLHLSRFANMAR

INS1 = test: INS-1E survival protection against cytokine death – cell-based, luminescence, retest, dose response (AID 449756); format: functional; settings: Rattus norvegicus;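 note: cell death triggered by IL-1 beta plus TNF-alpha plus IFN-gamma mixture; protective hits raise ATP signal compared with cytokine alone wells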
[8] = Trypanosoma cruzi growth suppression in host cells – NIH3T3 host cells, beta-gal luminescence, confirmation (AID 2044); format: functional, cell-based;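 note: intracellular parasites grown in NIH/3T3 mouse fibroblasts as host cells; luminescent beta-galactosidase reporter signal from transgenic T. cruzi replicating inside host cells; inhibitors lower the luminescence signal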
[9] = NIH3T3 cell viability loss – ATP luminescence, mouse fibroblasts, counter-screen, dose response (AID 2010); format: functional, cell-based;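 note: cells exposed to compound for about 90 hours before reading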
Protein RecA = target: T4, Protein RecA (Mycobacterium tuberculosis, UniProt P9WHJ3); test: Fluorescence Cell-Free Homogeneous Dose Retest to Identify Inhibitors of RecA-Intein Splicing Activity. [Related pubchem assays (depositor defined):AID2097, AID2223, AID489010, AID492950]; format: functional
T4 sequence (P9WHJ3 whole entry): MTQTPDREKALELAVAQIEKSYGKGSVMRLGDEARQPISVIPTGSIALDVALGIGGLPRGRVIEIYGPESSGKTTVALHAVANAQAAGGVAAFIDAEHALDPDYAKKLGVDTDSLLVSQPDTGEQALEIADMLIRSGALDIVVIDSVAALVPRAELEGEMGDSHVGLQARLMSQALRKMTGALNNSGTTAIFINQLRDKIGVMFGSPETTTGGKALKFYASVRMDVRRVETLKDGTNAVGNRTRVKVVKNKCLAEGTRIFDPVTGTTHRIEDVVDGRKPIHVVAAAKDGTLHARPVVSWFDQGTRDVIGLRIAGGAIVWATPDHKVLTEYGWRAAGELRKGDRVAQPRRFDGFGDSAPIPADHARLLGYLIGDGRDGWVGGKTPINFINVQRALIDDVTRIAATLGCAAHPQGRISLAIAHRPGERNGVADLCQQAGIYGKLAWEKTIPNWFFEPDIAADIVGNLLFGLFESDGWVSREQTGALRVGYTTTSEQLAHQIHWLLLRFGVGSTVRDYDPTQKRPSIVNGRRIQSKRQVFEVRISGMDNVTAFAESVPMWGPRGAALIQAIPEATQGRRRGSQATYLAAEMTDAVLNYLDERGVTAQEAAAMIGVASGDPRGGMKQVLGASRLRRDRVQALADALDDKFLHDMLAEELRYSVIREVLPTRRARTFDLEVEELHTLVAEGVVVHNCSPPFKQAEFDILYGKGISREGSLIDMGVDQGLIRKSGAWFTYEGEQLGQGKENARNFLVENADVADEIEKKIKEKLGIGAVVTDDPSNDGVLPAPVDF

Estrogen receptor = target: T5, Estrogen receptor (Homo sapiens, UniProt P03372);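 note: potency for inhibiting coactivator peptide recruitment to the receptor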
T5 sequence (P03372 whole entry): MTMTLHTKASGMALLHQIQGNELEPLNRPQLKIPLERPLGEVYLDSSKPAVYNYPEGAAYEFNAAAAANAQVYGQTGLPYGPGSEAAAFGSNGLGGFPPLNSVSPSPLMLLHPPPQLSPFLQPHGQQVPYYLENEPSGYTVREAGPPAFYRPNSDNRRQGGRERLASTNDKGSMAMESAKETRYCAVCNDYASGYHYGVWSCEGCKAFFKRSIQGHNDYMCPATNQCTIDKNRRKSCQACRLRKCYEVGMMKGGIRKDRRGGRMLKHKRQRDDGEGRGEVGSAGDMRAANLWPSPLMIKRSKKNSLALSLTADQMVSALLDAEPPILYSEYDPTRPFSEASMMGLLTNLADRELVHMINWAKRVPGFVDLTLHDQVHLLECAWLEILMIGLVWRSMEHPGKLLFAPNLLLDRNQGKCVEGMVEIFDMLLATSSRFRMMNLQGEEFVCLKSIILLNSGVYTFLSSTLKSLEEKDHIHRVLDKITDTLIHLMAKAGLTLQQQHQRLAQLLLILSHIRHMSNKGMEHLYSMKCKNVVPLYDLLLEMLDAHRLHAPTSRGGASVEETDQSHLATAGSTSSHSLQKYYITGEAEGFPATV

[10] = target: Induced myeloid leukemia cell differentiation protein Mcl-1 (Homo sapiens, UniProt Q07820); format: functional
Sequence of Induced myeloid leukemia cell differentiation protein Mcl-1 (Q07820 whole entry): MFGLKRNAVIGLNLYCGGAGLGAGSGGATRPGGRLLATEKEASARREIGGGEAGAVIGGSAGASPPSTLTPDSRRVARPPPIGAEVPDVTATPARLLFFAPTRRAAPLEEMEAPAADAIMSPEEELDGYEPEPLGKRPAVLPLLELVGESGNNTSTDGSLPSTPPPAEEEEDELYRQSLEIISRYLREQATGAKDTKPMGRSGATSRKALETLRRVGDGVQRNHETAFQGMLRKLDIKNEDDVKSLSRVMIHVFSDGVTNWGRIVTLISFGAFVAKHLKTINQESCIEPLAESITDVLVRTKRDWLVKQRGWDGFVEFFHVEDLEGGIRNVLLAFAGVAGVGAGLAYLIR

Large T antigen = Large T antigen (Simian virus 40, UniProt P03070); format: functional, Betapolyomavirus macacae;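 note: Confirmatory-stage PubChem screen for compounds that inhibit SV40 T antigen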
Sequence of Large T antigen (P03070 whole entry): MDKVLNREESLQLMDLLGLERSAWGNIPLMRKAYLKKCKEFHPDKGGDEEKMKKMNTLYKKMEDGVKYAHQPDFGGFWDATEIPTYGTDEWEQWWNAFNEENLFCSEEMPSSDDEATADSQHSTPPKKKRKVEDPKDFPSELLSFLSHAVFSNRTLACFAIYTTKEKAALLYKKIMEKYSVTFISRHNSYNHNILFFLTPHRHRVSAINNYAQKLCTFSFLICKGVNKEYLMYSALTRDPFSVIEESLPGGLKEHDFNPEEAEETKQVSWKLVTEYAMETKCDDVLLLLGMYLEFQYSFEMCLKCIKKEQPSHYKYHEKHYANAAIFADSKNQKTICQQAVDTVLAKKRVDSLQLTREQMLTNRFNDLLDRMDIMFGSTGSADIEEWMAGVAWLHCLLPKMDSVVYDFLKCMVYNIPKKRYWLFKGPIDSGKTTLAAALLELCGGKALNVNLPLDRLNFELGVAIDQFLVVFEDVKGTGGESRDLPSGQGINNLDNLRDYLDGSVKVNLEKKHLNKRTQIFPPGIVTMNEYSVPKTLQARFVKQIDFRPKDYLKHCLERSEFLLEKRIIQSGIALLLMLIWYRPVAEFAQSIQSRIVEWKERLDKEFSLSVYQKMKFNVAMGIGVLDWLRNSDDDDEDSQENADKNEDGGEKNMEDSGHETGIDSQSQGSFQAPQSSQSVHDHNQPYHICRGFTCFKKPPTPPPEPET

Genome polyprotein = Genome polyprotein (dengue virus type 2, UniProt P29990); test: flavivirus cap methylation enzyme inhibition – biochemical, confirmation dose response, primary screen (AID 588689); format: functional
Sequence of Genome polyprotein (P29990 2492-3391 limits assumed): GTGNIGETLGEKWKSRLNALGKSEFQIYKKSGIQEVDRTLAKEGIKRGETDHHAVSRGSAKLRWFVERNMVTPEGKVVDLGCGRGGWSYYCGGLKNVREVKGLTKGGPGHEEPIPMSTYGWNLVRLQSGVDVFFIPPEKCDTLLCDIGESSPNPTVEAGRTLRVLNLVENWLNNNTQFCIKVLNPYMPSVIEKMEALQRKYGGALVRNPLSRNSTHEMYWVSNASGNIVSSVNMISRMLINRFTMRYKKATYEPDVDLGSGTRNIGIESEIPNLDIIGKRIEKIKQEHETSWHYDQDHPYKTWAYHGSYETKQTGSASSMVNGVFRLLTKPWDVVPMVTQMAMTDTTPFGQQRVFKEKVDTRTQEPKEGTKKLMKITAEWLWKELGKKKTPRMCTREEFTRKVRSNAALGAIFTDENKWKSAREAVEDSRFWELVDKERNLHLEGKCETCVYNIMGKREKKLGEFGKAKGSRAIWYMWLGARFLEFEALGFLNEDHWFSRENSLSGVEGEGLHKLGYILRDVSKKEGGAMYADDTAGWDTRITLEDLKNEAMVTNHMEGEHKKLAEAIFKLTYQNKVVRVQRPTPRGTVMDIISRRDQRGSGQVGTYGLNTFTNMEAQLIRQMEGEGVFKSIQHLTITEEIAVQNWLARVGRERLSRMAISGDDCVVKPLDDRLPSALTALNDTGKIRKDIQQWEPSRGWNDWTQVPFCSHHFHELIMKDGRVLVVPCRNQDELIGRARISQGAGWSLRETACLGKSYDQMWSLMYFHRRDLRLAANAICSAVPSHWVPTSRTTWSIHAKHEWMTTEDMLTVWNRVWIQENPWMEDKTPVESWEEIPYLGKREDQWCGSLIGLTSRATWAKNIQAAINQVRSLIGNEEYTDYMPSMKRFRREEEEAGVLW

[11] = target: T6, Carboxy-terminal domain RNA polymerase II polypeptide A small phosphatase 1 (Homo sapiens, UniProt Q9GZU7); test: CTDSP1 inhibitors, concentration-response, biochemical, absorbance readout, ultra-high-throughput screen actives (AID 540297); format: functional
T6 sequence (Q9GZU7 whole entry): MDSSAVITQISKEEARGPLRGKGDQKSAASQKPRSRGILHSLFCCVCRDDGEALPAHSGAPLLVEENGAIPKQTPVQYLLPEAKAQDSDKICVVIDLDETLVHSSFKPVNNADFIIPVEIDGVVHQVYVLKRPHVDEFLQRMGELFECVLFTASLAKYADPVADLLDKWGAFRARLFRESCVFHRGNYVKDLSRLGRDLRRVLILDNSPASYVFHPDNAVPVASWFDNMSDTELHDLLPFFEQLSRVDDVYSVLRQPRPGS

SMILES: O=C(C1CCC(CNS(=O)(=O)c2cccc3nsnc23)CC1)N1CCN(c2ccccn2)CC1 (configuration not stated)
- EC50 [1]: > 260 µM (inactive)

SMILES: CC/N=C1\SC(CC(=O)NC(C)C)C(=O)N1CC (configuration not stated)
- EC50 (cells [2]): > 350 µM (not active)
- EC50 (cells [3]): > 350 µM (not active)

SMILES: CCOC(=O)c1c(S(=O)(=O)N2CCCC2)c(C)n(C)c1C
- EC50 (cells [2]): > 350 µM (not active)
- EC50 (cells [3]): > 350 µM (not active)

SMILES: O=S1(=O)c2cccc3cccc(c23)N1Cc1nnc(-c2ccccc2Br)o1
- EC50 [1]: 34.6 µM (active)

SMILES: COc1ccc(N(C(=O)c2snc(C(N)=O)c2N)C(C(=O)NC2CCCCC2)c2ccc(C)o2)cc1 (configuration not stated)
- IC50 [4]: > 20 µM (inactive)

SMILES: CN(C)CCCOc1ccc(/C=N/NC(=O)CCCCCCC(=O)Nc2ccccc2O)cc1
- AC50 [5]: 1.29 µM (active)

SMILES: C[C@@H]1CN([C@@H](C)CO)C(=O)c2cccc(NS(=O)(=O)c3cccs3)c2O[C@H]1CN(C)Cc1ccc(C(=O)Nc2ccccc2N)cc1
- AC50 [5]: 5.68 µM (active)

SMILES: CCN(CC)CCCNC(=O)C1c2ccccc2C(=O)N(C)C1c1ccc(OC)cc1 (configuration not stated)
- EC50 (cells [2]): > 350 µM (not active)
- EC50 (cells [3]): > 350 µM (not active)

SMILES: CCCCCc1cc(=O)oc2c(C(CCN3CCCC(C)C3)c3ccc(OC)cc3)c(OC)cc(OC)c12 (configuration not stated)
- IC50 [4]: > 20 µM (inactive)
- AC50 [6]: 3.25 µM (active)
- AC50 [7]: 4.78 µM (active)
- AC50 (INS1): 7.46 µM (active)
- EC50 [8]: 1.6 µM (active)
- EC50 [9]: 7.56 µM (active)
- EC50 (Protein RecA): 12 µM (active)

SMILES: CC(C)CC(=O)Nc1ccc(C(=O)COc2ccc(-c3nnco3)cc2)cc1
- IC50 (Estrogen receptor): 22.3 µM (active)

SMILES: COc1ccc(NC(=O)CSc2nc3c(sc4ccccc43)c(=O)n2CCCN2CCCC2)cc1
- IC50 [4]: > 20 µM (inactive)

SMILES: COc1ccc(Cc2nc3ccc(S(=O)(=O)N4CCOCC4)cc3[nH]2)cc1
- IC50 (Estrogen receptor): > 50 µM (not active)

SMILES: CCOC(=S)SCC(=O)Nc1nc(C)c(C)s1
- EC50 [1]: 7.81 µM (active)

SMILES: C[C@@H]1CN([C@H](C)CO)C(=O)Cc2cc(NC(=O)CCCCCC(=O)Nc3ccccc3N)ccc2O[C@@H]1CN(C)Cc1ccc(Cl)c(Cl)c1
- AC50 [5]: 4.01 µM (active)

SMILES: O=C(COc1cccnc1[N+](=O)[O-])c1ccc(Cl)s1
- IC50 [10]: 3.78 µM (active)
- IC50 (Large T antigen): 67.7 µM (active)
- IC50 (Genome polyprotein): > 100 µM (active)

SMILES: C[C@H](CO)N1C[C@H](C)[C@H](CN(C)S(=O)(=O)c2ccc(Cl)cc2)Oc2c(NC(=O)CCCCCC(=O)Nc3ccccc3N)cccc2C1=O
- AC50 [5]: 1.95 µM (active)

SMILES: COc1ccc(N(CN2C(=O)C3C4C=CC(C4)C3C2=O)C(=O)c2ccco2)cc1 (configuration not stated)
- IC50 (Estrogen receptor): > 50 µM (not active)

SMILES: COc1ccc(/C=N/NC(=O)c2ccc(O)cc2O)cc1CSc1ccccn1
- IC50 [10]: 3.42 µM (active)
- IC50 [11]: 5.92 µM (active)

SMILES: CCC(CC)COC(=O)C1=C(C)NC(=O)NC1c1cc(OC)ccc1OC (configuration not stated)
- EC50 [1]: > 260 µM (inactive)

SMILES: CCN(Cc1ccccc1)C(=O)C1CCN(C/C(C)=C/c2ccccc2)CC1
- EC50 [1]: > 260 µM (inactive)

SMILES: Cc1ccc(NC2CCCN(C(=O)C3CCCCC3)C2)cc1C (configuration not stated)
- EC50 (cells [2]): > 350 µM (not active)
- EC50 (cells [3]): > 350 µM (not active)

SMILES: C[C@@H]1CCCCO[C@@H](CN(C)S(=O)(=O)c2cccs2)[C@@H](C)CN([C@H](C)CO)C(=O)c2cc(NC(=O)Nc3ccc(C(F)(F)F)cc3)ccc2O1
- AC50 [5]: 4.19 µM (active)

SMILES: COC(=O)c1ccc(CSc2nc3c(cnn3-c3ccc(C)c(C)c3)c(=O)[nH]2)o1
- IC50 (Estrogen receptor): 38.5 µM (not active)

SMILES: COc1ccccc1CNC(=O)c1csc(Cc2ccc(Cl)cc2)n1
- EC50 [1]: > 260 µM (inactive)
